Key:
[1] = biological target: AP2-associated protein kinase 1 (Homo sapiens) (UniProt Q2M2I8); conditions: Compound concentration 1000.0 nM
[2] = system: Tyrosine-protein kinase ABL1 (Homo sapiens), P00519 [H396P]; conditions: Compound concentration 1000.0 nM
[3] = system: ALK tyrosine kinase receptor (Homo sapiens), Q9UM73 [C1156Y]; conditions: Compound concentration 1000.0 nM
[4] = biological target: Serine/threonine-protein kinase B-raf (Homo sapiens) (UniProt P15056); conditions: Compound concentration 1000.0 nM
[5] = biological target: Cyclin-dependent kinase 7 (Homo sapiens) (UniProt P50613); conditions: Compound concentration 1000.0 nM
[6] = biological target: Casein kinase I isoform gamma-2 (Homo sapiens) (UniProt P78368); conditions: Compound concentration 1000.0 nM
[7] = biological target: Casein kinase II subunit alpha' (Homo sapiens) (UniProt P19784); conditions: Compound concentration 1000.0 nM
[8] = system: Epidermal growth factor receptor (Homo sapiens), P00533 [UNDEFINED MUTATION]; conditions: Compound concentration 1000.0 nM
[9] = system: Epidermal growth factor receptor (Homo sapiens), P00533 [UNDEFINED MUTATION]; conditions: Compound concentration 1000.0 nM; remark: listed apart in the source
[10] = biological target: Ephrin type-A receptor 4 (Homo sapiens) (UniProt P54764); conditions: Compound concentration 1000.0 nM
[11] = biological target: Ephrin type-B receptor 4 (Homo sapiens) (UniProt P54760); conditions: Compound concentration 1000.0 nM
[12] = biological target: Mitogen-activated protein kinase 1 (Homo sapiens) (UniProt P28482); conditions: Compound concentration 1000.0 nM
[13] = biological target: Mitogen-activated protein kinase 7 (Homo sapiens) (UniProt Q13164); conditions: Compound concentration 1000.0 nM
[14] = system: Receptor-type tyrosine-protein kinase FLT3 (Homo sapiens), P36888 [D835Y]; conditions: Compound concentration 1000.0 nM
[15] = system: Receptor-type tyrosine-protein kinase FLT3 (Homo sapiens), P36888 [K663Q]; conditions: Compound concentration 1000.0 nM
[16] = biological target: Receptor-type tyrosine-protein kinase FLT3 (Homo sapiens) (UniProt P36888); conditions: Compound concentration 1000.0 nM
[17] = biological target: Tyrosine-protein kinase Fyn (Homo sapiens) (UniProt P06241); conditions: Compound concentration 1000.0 nM
[18] = biological target: Cyclin-G-associated kinase (Homo sapiens) (UniProt O14976); conditions: Compound concentration 1000.0 nM
[19] = biological target: G protein-coupled receptor kinase 4 (Homo sapiens) (UniProt P32298); conditions: Compound concentration 1000.0 nM
[20] = biological target: Homeodomain-interacting protein kinase 1 (Homo sapiens) (UniProt Q86Z02); conditions: Compound concentration 1000.0 nM
[21] = biological target: Inhibitor of nuclear factor kappa-B kinase subunit alpha (Homo sapiens) (UniProt O15111); conditions: Compound concentration 1000.0 nM
[22] = biological target: Mitogen-activated protein kinase 8 (Homo sapiens) (UniProt P45983); conditions: Compound concentration 1000.0 nM
[23] = system: Mast/stem cell growth factor receptor Kit (Homo sapiens), P10721 [L576P]; conditions: Compound concentration 1000.0 nM
[24] = biological target: MAP kinase-activated protein kinase 5 (Homo sapiens) (UniProt Q8IW41); conditions: Compound concentration 1000.0 nM
[25] = biological target: Serine/threonine-protein kinase MARK2 (Homo sapiens) (UniProt Q7KZI7); conditions: Compound concentration 1000.0 nM
[26] = biological target: Dual specificity mitogen-activated protein kinase kinase 1 (Homo sapiens) (UniProt Q02750); conditions: Compound concentration 1000.0 nM
[27] = biological target: Serine/threonine-protein kinase 4 (Homo sapiens) (UniProt Q13043); conditions: Compound concentration 1000.0 nM
[28] = biological target: Serine/threonine-protein kinase 26 (Homo sapiens) (UniProt Q9P289); conditions: Compound concentration 1000.0 nM
[29] = biological target: Myosin light chain kinase, smooth muscle (Homo sapiens) (UniProt Q15746); conditions: Compound concentration 1000.0 nM
[30] = biological target: Myosin-IIIa (Homo sapiens) (UniProt Q8NEV4); conditions: Compound concentration 1000.0 nM
[31] = biological target: Mitogen-activated protein kinase 11 (Homo sapiens) (UniProt Q15759); conditions: Compound concentration 1000.0 nM
[32] = biological target: Cyclin-dependent kinase 17 (Homo sapiens) (UniProt Q00537); conditions: Compound concentration 1000.0 nM
[33] = biological target: Cyclin-dependent kinase 2 homolog (Plasmodium falciparum (isolate 3D7)) (UniProt P61075); conditions: Compound concentration 1000.0 nM
[34] = system: Phosphatidylinositol 4,5-bisphosphate 3-kinase catalytic subunit alpha isoform (Homo sapiens), P42336 [H1047L]; conditions: Compound concentration 1000.0 nM
[35] = system: Phosphatidylinositol 4,5-bisphosphate 3-kinase catalytic subunit alpha isoform (Homo sapiens), P42336 [I800L]; conditions: Compound concentration 1000.0 nM
[36] = biological target: Serine/threonine-protein kinase PknB (Mycobacterium tuberculosis) (UniProt P9WI81); conditions: Compound concentration 1000.0 nM
[37] = biological target: Serine/threonine-protein kinase D3 (Homo sapiens) (UniProt O94806); conditions: Compound concentration 1000.0 nM
[38] = biological target: cGMP-dependent protein kinase 1 (Homo sapiens) (UniProt Q13976); conditions: Compound concentration 1000.0 nM
[39] = biological target: Rho-associated protein kinase 2 (Homo sapiens) (UniProt O75116); conditions: Compound concentration 1000.0 nM
[40] = biological target: SRSF protein kinase 2 (Homo sapiens) (UniProt P78362); conditions: Compound concentration 1000.0 nM
[41] = biological target: Serine/threonine-protein kinase TNNI3K (Homo sapiens) (UniProt Q59H18); conditions: Compound concentration 1000.0 nM
[42] = biological target: Serine/threonine-protein kinase WNK1 (Homo sapiens) (UniProt Q9H4A3); conditions: Compound concentration 1000.0 nM
[43] = biological target: Histamine H1 receptor (Homo sapiens) (UniProt P35367); conditions: Compound concentration 10.0 uM
[44] = biological target: Histamine H4 receptor (Homo sapiens) (UniProt Q9H3N8); conditions: Compound concentration 10.0 uM
[45] = biological target: Muscarinic acetylcholine receptor M3 (Homo sapiens) (UniProt P20309); conditions: Compound concentration 10.0 uM

Chain of Epidermal growth factor receptor (Homo sapiens), P00533 [UNDEFINED MUTATION] (P00533 whole entry, looked up, change not shown): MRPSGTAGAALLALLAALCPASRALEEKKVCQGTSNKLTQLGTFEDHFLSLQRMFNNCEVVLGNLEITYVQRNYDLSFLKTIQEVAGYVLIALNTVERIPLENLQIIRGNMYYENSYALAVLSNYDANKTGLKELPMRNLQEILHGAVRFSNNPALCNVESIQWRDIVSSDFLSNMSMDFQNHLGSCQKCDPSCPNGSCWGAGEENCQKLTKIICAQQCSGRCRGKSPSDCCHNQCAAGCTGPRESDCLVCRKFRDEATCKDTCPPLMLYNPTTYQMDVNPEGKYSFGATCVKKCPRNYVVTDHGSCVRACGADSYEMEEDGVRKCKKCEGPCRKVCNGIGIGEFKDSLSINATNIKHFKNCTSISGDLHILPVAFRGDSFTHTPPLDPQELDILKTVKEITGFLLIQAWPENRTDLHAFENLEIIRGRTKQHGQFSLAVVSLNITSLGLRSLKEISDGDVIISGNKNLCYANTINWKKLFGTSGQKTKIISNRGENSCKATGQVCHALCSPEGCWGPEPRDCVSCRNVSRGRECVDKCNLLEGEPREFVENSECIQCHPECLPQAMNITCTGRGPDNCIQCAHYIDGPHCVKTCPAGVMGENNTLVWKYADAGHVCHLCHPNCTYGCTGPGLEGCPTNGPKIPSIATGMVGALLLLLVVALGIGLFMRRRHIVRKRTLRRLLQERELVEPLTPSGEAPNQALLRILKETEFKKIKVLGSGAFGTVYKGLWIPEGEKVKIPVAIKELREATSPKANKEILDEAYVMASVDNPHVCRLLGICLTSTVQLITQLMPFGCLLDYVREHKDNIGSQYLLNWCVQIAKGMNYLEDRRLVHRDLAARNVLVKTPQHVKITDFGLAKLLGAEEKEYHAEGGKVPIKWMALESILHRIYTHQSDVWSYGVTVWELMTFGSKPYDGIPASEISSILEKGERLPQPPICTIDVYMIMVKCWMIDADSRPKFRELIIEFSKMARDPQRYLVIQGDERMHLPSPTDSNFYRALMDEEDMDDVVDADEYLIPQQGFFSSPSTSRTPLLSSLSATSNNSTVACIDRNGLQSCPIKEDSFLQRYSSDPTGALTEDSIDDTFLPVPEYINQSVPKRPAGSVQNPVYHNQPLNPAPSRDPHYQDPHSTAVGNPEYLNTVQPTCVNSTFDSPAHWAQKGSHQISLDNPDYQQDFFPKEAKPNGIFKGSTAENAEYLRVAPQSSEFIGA
Chain of Serine/threonine-protein kinase 4 (Homo sapiens) (Q13043 whole entry): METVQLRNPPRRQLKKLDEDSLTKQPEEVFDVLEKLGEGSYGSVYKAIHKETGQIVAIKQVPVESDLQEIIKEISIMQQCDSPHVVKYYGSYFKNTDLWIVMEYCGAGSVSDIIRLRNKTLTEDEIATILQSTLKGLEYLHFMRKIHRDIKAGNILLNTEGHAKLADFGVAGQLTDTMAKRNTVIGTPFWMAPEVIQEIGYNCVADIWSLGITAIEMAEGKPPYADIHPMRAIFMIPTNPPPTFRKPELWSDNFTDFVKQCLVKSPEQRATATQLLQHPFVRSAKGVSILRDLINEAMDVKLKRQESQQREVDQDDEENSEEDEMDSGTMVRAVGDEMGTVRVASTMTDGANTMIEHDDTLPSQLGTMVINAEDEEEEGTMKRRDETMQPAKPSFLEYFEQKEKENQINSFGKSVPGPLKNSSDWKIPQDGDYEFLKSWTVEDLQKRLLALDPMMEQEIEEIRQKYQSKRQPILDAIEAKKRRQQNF
Chain of Dual specificity mitogen-activated protein kinase kinase 1 (Homo sapiens) (Q02750 whole entry): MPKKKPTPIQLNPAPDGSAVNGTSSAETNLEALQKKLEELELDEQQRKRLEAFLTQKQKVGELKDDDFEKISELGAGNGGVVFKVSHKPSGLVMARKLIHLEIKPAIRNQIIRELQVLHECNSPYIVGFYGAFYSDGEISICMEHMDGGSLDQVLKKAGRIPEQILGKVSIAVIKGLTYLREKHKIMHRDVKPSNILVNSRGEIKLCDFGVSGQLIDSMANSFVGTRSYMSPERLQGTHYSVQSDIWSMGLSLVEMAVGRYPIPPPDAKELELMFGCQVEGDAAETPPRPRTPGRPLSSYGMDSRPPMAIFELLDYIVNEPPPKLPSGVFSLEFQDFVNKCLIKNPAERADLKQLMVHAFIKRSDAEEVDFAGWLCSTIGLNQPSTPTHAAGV
Chain of Serine/threonine-protein kinase D3 (Homo sapiens) (O94806 whole entry): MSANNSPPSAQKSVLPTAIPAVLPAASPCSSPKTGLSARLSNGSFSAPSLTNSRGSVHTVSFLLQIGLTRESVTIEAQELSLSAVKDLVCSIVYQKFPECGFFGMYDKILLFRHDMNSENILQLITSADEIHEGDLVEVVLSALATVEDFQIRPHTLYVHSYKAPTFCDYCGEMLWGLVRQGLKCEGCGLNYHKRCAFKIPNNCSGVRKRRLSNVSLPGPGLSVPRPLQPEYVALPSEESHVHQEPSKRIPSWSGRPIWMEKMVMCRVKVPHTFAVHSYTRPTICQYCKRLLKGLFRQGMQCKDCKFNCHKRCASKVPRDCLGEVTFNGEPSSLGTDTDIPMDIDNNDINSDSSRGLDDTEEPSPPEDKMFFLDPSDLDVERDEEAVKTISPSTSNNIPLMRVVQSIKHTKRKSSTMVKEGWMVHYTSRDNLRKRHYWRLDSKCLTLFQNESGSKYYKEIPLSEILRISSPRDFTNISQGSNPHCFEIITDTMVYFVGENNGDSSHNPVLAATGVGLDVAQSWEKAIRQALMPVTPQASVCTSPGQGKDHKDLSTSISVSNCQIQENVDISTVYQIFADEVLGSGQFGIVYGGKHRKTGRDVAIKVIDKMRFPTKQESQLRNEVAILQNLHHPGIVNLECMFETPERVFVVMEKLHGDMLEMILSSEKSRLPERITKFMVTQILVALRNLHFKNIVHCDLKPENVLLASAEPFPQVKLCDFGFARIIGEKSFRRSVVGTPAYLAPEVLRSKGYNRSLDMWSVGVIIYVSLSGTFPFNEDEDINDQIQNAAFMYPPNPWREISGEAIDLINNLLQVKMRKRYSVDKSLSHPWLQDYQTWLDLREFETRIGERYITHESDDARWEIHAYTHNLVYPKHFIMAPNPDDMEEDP
Chain of Rho-associated protein kinase 2 (Homo sapiens) (O75116 whole entry, looked up): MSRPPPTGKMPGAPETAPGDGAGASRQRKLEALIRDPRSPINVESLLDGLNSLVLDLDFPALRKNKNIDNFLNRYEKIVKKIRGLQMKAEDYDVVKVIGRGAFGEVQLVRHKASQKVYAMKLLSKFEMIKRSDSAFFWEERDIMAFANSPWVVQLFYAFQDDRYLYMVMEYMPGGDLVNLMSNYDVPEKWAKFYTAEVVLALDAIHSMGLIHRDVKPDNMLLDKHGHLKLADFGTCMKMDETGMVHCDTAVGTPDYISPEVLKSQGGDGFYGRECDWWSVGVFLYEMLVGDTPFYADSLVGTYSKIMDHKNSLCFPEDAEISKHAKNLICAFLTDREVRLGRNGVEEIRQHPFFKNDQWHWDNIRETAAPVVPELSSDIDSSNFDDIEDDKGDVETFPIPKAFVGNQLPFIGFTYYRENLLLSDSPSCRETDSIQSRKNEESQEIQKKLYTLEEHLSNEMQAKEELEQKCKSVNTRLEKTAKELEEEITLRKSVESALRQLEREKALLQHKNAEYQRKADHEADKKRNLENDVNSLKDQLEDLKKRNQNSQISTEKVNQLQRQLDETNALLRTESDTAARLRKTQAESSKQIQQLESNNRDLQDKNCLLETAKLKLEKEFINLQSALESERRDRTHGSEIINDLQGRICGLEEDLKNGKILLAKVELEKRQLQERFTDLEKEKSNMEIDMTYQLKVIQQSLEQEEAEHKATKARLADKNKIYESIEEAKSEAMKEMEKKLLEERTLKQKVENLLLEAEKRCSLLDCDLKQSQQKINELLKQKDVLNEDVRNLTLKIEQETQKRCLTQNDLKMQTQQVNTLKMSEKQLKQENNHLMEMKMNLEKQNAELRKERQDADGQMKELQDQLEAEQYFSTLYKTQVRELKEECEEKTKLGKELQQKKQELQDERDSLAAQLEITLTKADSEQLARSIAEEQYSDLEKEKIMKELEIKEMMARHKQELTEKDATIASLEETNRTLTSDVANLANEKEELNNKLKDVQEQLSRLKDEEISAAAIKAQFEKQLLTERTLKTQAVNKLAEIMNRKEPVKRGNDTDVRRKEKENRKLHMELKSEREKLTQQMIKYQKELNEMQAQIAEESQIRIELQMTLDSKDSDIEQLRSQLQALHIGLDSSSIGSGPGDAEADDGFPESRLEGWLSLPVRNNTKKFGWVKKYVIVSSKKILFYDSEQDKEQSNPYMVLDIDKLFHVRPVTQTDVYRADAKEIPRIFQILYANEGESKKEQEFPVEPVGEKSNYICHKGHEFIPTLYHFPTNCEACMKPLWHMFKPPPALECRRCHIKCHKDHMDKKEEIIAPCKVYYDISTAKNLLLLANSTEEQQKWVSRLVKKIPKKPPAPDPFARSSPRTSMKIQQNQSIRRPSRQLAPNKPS
Chain of Histamine H4 receptor (Homo sapiens) (Q9H3N8 whole entry): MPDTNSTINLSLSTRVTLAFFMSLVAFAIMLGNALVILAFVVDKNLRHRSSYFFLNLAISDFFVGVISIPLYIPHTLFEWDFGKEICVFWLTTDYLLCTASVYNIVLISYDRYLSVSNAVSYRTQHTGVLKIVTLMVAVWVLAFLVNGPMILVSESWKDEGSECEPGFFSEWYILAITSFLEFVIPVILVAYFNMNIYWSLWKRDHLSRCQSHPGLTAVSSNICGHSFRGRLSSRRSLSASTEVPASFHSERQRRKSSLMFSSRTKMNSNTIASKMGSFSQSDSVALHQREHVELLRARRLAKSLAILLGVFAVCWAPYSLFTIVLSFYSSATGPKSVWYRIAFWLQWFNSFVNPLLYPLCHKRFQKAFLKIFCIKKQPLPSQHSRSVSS
Chain of Cyclin-dependent kinase 2 homolog (Plasmodium falciparum (isolate 3D7)) (P61075 whole entry, canonical isoform): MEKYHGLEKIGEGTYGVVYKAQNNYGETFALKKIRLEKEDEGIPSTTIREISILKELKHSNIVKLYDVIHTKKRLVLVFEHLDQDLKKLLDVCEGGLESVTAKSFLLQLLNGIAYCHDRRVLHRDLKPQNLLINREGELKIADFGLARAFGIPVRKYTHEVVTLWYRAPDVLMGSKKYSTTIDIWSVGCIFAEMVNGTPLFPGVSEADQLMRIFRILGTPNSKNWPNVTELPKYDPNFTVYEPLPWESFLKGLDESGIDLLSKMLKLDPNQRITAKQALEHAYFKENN

`NS(=O)(=O)c1cc(NC(=O)C2(c3ccccc3Cl)CC2)ccc1Oc1cccc(Cl)c1` [BAY-207] was tested, and the residual activity [1] was 100%, the residual activity [2] was 81% and the residual activity [3] was 100%. For the same compound, the residual activity [4] was 71%, the residual activity [5] was 82% and the residual activity [6] was 82%. It also gave a residual activity [7] of 100%, a residual activity [8] of 46% and a residual activity [9] of 85%. The residual activity [10] was 100%, the residual activity [11] was 57% and the residual activity [12] was 75%. For the same compound, the residual activity [13] was 92%, the residual activity [14] was 100% and the residual activity [15] was 100%. For the same compound, the residual activity [16] was 70%, the residual activity [17] was 100% and the residual activity [18] was 76%. For the same compound, the residual activity [19] was 100%, the residual activity [20] was 91% and the residual activity [21] was 100%. For the same compound, the residual activity [22] was 100%, the residual activity [23] was 89% and the residual activity [24] was 89%. It also gave a residual activity [25] of 100%, a residual activity [26] of 88% and a residual activity [27] of 73%. It also gave a residual activity [28] of 100%, a residual activity [29] of 72% and a residual activity [30] of 93%. It also gave a residual activity [31] of 68%, a residual activity [32] of 88% and a residual activity [33] of 93%. For the same compound, the residual activity [34] was 98%, the residual activity [35] was 100% and the residual activity [36] was 90%. For the same compound, the residual activity [37] was 85%, the residual activity [38] was 91% and the residual activity [39] was 100%. The residual activity [40] was 100%, the residual activity [41] was 72% and the residual activity [42] was 88%. The inhibition [43] was 17.9%, the inhibition [44] was 0.09% and the inhibition [45] was 17.9%.

`NS(=O)(=O)c1cc(NC(=O)Cc2ccccc2)ccc1Oc1cccc(Cl)c1` [BAY-1797] showed a residual activity [1] of 88%, a residual activity [2] of 97% and a residual activity [3] of 88%. For the same compound, the residual activity [4] was 96%, the residual activity [5] was 64% and the residual activity [6] was 100%. For the same compound, the residual activity [7] was 100%, the residual activity [8] was 58% and the residual activity [9] was 76%. The residual activity [10] was 97%, the residual activity [11] was 98% and the residual activity [12] was 71%. It also gave a residual activity [13] of 83%, a residual activity [14] of 95% and a residual activity [15] of 99%. For the same compound, the residual activity [16] was 90%, the residual activity [17] was 69% and the residual activity [18] was 99%. The residual activity [19] was 100%, the residual activity [20] was 80% and the residual activity [21] was 63%. For the same compound, the residual activity [22] was 69%, the residual activity [23] was 78% and the residual activity [24] was 100%. The residual activity [25] was 59%, the residual activity [26] was 97% and the residual activity [27] was 86%. It also gave a residual activity [28] of 99%, a residual activity [29] of 73% and a residual activity [30] of 100%. It also gave a residual activity [31] of 100%, a residual activity [32] of 88% and a residual activity [33] of 100%. It also gave a residual activity [34] of 96%, a residual activity [35] of 82% and a residual activity [36] of 89%. For the same compound, the residual activity [37] was 100%, the residual activity [38] was 100% and the residual activity [39] was 98%. It also gave a residual activity [40] of 88%, a residual activity [41] of 91% and a residual activity [42] of 89%. The inhibition [43] was 15.7%, the inhibition [44] was -3.13% and the inhibition [45] was -0.53%.

Source: ChEMBL document CHEMBL4507265 (2021)
